Results as given in patent US9586962B2, “Disubstituted octahydropyrrolo [3,4-C] pyrroles as orexin receptor modulators” (Janssen Pharmaceutica NV, priority 2011, dated 2017).

target: T1, human orexin 2 receptor (Homo sapiens (Human), UniProt O43614); assay: Human orexin 2 receptor Ca2+ mobilization assay (FLIPR, PFSK cells, orexin B 100 nM); type: cell-based; details: modified Cheng-Prusoff correction, read-out: OR 2 Kb
T1 sequence (O43614 whole entry): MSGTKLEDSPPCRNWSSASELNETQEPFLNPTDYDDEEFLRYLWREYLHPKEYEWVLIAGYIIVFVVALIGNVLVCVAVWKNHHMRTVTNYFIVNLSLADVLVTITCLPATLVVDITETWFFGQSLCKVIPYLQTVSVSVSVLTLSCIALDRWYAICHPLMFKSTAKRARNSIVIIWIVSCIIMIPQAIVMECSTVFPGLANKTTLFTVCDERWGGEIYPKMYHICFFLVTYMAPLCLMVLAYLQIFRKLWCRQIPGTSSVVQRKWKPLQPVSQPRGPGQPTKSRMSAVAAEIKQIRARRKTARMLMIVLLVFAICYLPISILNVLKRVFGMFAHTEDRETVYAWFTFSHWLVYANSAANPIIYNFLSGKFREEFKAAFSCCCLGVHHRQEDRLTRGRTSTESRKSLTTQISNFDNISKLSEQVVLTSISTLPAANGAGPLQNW

Row | Compound | Kb
1 | Cc1nc(N2CC3CN(C(=O)c4ccccc4-c4ncn(C)n4)CC3C2)nc(C)c1Cl (stereo not drawn) [Example 320, 2-(5-Chloro-4,6-dimethylpyrimidin-2-yl)-5-{[2-(1-methyl-1H-1,2,4-triazol-3-yl)phenyl]carbonyl}octahydropyrrolo[3,4-c]pyrrole] | 2 nM
2 | Cc1nc(N2CC3CN(C(=O)c4ccccc4-c4ncn(C)n4)CC3C2)ncc1Cl (stereo not drawn) [Example 321, 2-(5-Chloro-4-methylpyrimidin-2-yl)-5-{[2-(1-methyl-1H-1,2,4-triazol-3-yl)phenyl]carbonyl}octahydropyrrolo[3,4-c]pyrrole] | 10 nM
3 | CCc1c(C)nc(N2CC3CN(C(=O)c4ccccc4-c4ncn(C)n4)CC3C2)nc1C (stereo not drawn) [Example 322, 2-(5-Ethyl-4,6-dimethylpyrimidin-2-yl)-5-{[2-(1-methyl-1H-1,2,4-triazol-3-yl)phenyl]carbonyl}octahydropyrrolo[3,4-c]pyrrole] | 5 nM
4 | Cc1nc(N2CC3CN(C(=O)c4ncccc4-n4nccn4)CC3C2)nc(C)c1C (stereo not drawn) [Example 323, 2-{[3-(2H-1,2,3-Triazol-2-yl)pyridin-2-yl]carbonyl}-5-(4,5,6-trimethylpyrimidin-2-yl)octahydropyrrolo[3,4-c]pyrrole] | 4 nM
5 | Cc1nc(N2CC3CN(C(=O)c4ncccc4-n4nccn4)CC3C2)nc(C)c1F (stereo not drawn) [Example 325, 2-(5-Fluoro-4,6-dimethylpyrimidin-2-yl)-5-{[3-(2H-1,2,3-triazol-2-yl)pyridin-2-yl]carbonyl}octahydropyrrolo[3,4-c]pyrrole] | 2 nM
6 | Cc1cc(C)nc(N2CC3CN(C(=O)c4cccc5c4-c4ccccc4C5)CC3C2)n1 (stereo not drawn) [Example 326, 2-(4,6-Dimethylpyrimidin-2-yl)-5-(9H-fluoren-4-ylcarbonyl)octahydropyrrolo[3,4-c]pyrrole] | 4 nM
7 | Cc1cc(C)nc(N2CC3CN(C(=O)c4c(-n5nccn5)ccc5c4OCO5)CC3C2)n1 (stereo not drawn) [Example 327, [5-(4,6-Dimethyl-pyrimidin-2-yl)-hexahydro-pyrrolo[3,4-c]pyrrol-2-yl]-(5-[1,2,3]triazol-2-yl-benzo[1,3]dioxol-4-yl)methanone] | 50 nM
8 | Cc1cc(C)nc(N2CC3CN(C(=O)c4cccc5cccc(-n6nccn6)c45)CC3C2)n1 (stereo not drawn) [Example 328, [5-(4,6-Dimethyl-pyrimidin-2-yl)-hexahydro-pyrrolo[3,4-c]pyrrol-2-yl]-(8-[1,2,3]triazol-2-yl-naphthalen-1-yl)-methanone] | 40 nM
9 | Cc1cc(C)nc(N2CC3CN(C(=O)c4cccc(F)c4-c4ccccn4)CC3C2)n1 (stereo not drawn) [Example 367, (5-(4,6-Dimethylpyrimidin-2-yl)hexahydropyrrolo[3,4-c]pyrrol-2(1H)-yl)(3-fluoro-2-(pyridin-2-yl)phenyl)methanone] | 3 nM
10 | Cc1cccc(-c2c(F)cccc2C(=O)N2CC3CN(c4nc(C)cc(C)n4)CC3C2)n1 (stereo not drawn) [Example 370, (5-(4,6-Dimethylpyrimidin-2-yl)hexahydropyrrolo[3,4-c]pyrrol-2(1H)-yl)(3-fluoro-2-(6-methylpyridin-2-yl)phenyl)methanone] | 7 nM
11 | Cc1ccnc(-c2c(F)cccc2C(=O)N2CC3CN(c4nc(C)cc(C)n4)CC3C2)c1 (stereo not drawn) [Example 373, (5-(4,6-Dimethylpyrimidin-2-yl)hexahydropyrrolo[3,4-c]pyrrol-2(1H)-yl)(3-fluoro-2-(4-methylpyridin-2-yl)phenyl)methanone] | 5 nM
12 | Cc1ccc(-c2c(F)cccc2C(=O)N2CC3CN(c4nc(C)cc(C)n4)CC3C2)nc1 (stereo not drawn) [Example 374, (5-(4,6-Dimethylpyrimidin-2-yl)hexahydropyrrolo[3,4-c]pyrrol-2(1H)-yl)(3-fluoro-2-(5-methylpyridin-2-yl)phenyl)methanone] | 12 nM
13 | Cc1cc(C)nc(N2CC3CN(C(=O)c4cccc(F)c4-c4ncccc4F)CC3C2)n1 (stereo not drawn) [Example 375, (5-(4,6-Dimethylpyrimidin-2-yl)hexahydropyrrolo[3,4-c]pyrrol-2(1H)-yl)(3-fluoro-2-(3-fluoropyridin-2-yl)phenyl)methanone] | 4 nM
14 | COc1ccc(C(=O)N2CC3CN(c4ncc(F)c(C)n4)CC3C2)c(-n2nccn2)c1 (stereo not drawn) [Example 377, 2-(5-Fluoro-4-methylpyrimidin-2-yl)-5-{[4-methoxy-2-(2H-1,2,3-triazol-2-yl)phenyl]carbonyl}octahydropyrrolo[3,4-c]pyrrole] | 2 nM
15 | COc1ccc(C(=O)N2CC3CN(c4ncc(Cl)c(C)n4)CC3C2)c(-n2nccn2)c1 (stereo not drawn) [Example 378, 2-(5-Chloro-4-methylpyrimidin-2-yl)-5-{[4-methoxy-2-(2H-1,2,3-triazol-2-yl)phenyl]carbonyl}octahydropyrrolo[3,4-c]pyrrole] | 2 nM
16 | COc1ccc(C(=O)N2CC3CN(c4nc(C)c(F)c(C)n4)CC3C2)c(-n2nccn2)c1 (stereo not drawn) [Example 379, 2-(5-Fluoro-4,6-dimethylpyrimidin-2-yl)-5-{[4-methoxy-2-(2H-1,2,3-triazol-2-yl)phenyl]carbonyl}octahydropyrrolo[3,4-c]pyrrole] | 5 nM
17 | COc1ccc(C(=O)N2CC3CN(c4ncc(C)c(C)n4)CC3C2)c(-n2nccn2)c1 (stereo not drawn) [Example 380, 2-(4,5-Dimethylpyrimidin-2-yl)-5-{[4-methoxy-2-(2H-1,2,3-triazol-2-yl)phenyl]carbonyl}octahydropyrrolo[3,4-c]pyrrole] | 5 nM
18 | CCc1c(C)nc(N2CC3CN(C(=O)c4ncccc4-n4nccn4)CC3C2)nc1C (stereo not drawn) [Example 385, 2-(5-Ethyl-4,6-dimethylpyrimidin-2-yl)-5-{[3-(2H-1,2,3-triazol-2-yl)pyridin-2-yl]carbonyl}octahydropyrrolo[3,4-c]pyrrole] | 8 nM
19 | O=C(c1cccc(F)c1-c1ncccn1)N1CC2CN(c3cnc4cc(F)c(F)cc4n3)CC2C1 (stereo not drawn) [Example 387, (5-(6,7-Difluoroquinoxalin-2-yl)hexahydropyrrolo[3,4-c]pyrrol-2(1H)-yl)(3-fluoro-2-(pyrimidin-2-yl)phenyl)methanone] | 9 nM
20 | COc1ccc(C(=O)N2CC3CN(c4cnc5cc(F)c(F)cc5n4)CC3C2)c(-n2nccn2)c1 (stereo not drawn) [Example 389, (5-(6,7-Difluoroquinoxalin-2-yl)hexahydropyrrolo[3,4-c]pyrrol-2(1H)-yl)(4-methoxy-2-(2H-1,2,3-triazol-2-yl)phenyl)methanone] | 14 nM
21 | Cc1cc(C)nc(N2CC3CN(C(=O)c4cccc(F)c4-c4ccccn4)CC3C2)n1 (stereo not drawn) [Example 472, (5-(4,6-dimethylpyrimidin-2-yl)hexahydropyrrolo[3,4-c]pyrrol-2(1H)-yl)(3-fluoro-2-(pyridin-2-yl)phenyl)methanone] | 3 nM

target: T1, human orexin 2 receptor; assay: Human orexin 2 receptor radioligand binding ([3H]EMPA competition, HEK293 cells); details: HEK293 cells expressing human orexin-2 receptor, read-out: OR 2 Ki

Row | Compound | Ki
22 | Cc1cc(C)nc(N2CC3CN(C(=O)c4ncccc4C(F)(F)F)CC3C2)n1 (stereo not drawn) [Example 413, 2-(4,6-Dimethylpyrimidin-2-yl)-5-{[3-(trifluoromethyl)pyridin-2-yl]carbonyl}octahydropyrrolo[3,4-c]pyrrole] | 9000 nM
23 | CCOc1ccc(C)nc1C(=O)N1CC2CN(c3nc(C)cc(C)n3)CC2C1 (stereo not drawn) [Example 414, 2-(4,6-Dimethylpyrimidin-2-yl)-5-[(3-ethoxy-6-methylpyridin-2-yl)carbonyl]octahydropyrrolo[3,4-c]pyrrole] | 897 nM
24 | CCOc1ncccc1C(=O)N1CC2CN(c3nc(C)cc(C)n3)CC2C1 (stereo not drawn) [Example 415, 2-(4,6-Dimethylpyrimidin-2-yl)-5-[(2-ethoxypyridin-3-yl)carbonyl]octahydropyrrolo[3,4-c]pyrrole] | 334 nM
